Source: patent US20240293364A1, “BIOMARKERS FOR CANCER THERAPY USING MDM2 ANTAGONISTS” (OTSUKA PHARMACEUTICAL CO., LTD., priority 2021, published 2024)

Experiments:
[1] = system: ATM mutant cell lines LNCap and HepG2; assay: Apoptosis assays (Annexin V-FITC/PI flow cytometry); assay type: cell-based; details: LNCap prostate and HepG2 liver (FIG. 2D)
Experimental: After 72-hour incubation of the cells with compound, cells were trypsinised, washed with PBS and immediately used for flow cytometry analysis.
The samples were stained with eBioscience™ Annexin V-FITC Apoptosis Detection Kit (#BMS500FI-100, Thermo Fisher Scientific, Waltham, MA, USA) according to manufacturer's recommendations. Briefly, the samples were washed in PBS and resuspended in 200 μl of 1× binding buffer containing 5 μl of Annexin V-FITC for 10 min at room temperature. Following the incubation, samples were washed with 1× binding buffer and resuspended in 200 μl 1× binding buffer and 10 μl of the 20 μg/ml PI.
The stained samples were then immediately analysed by flow cytometry on Guava easyCyte HT cytometer (Merck-Millipore). The cell populations were separated into three groups: live cells showing only a low level of fluorescence (Annexin V-/PI-), apoptotic cells showing green fluorescence (Annexin V+/PI−) and dead cells showing both red and green fluorescence (Annexin V+/PI+). Data analyses were performed using Microsoft excel and results plotted on Prism version 7 (GraphPad Software, California, USA).

DDR signalling pathway = assay: Western blotting of DDR signalling in ATM mutant cell lines; assay type: cell-based; details: ATM mutant cell lines (FIG. 2E)
Experimental: The cell lysates were then analysed by Western blotting. […] After washing, blots were incubated for 1 hour with infrared dye labelled anti-rabbit IR800 or anti-goat IR800 secondary antibodies at a dilution of 1: 10,000 in Odyssey blocking buffer (LiCor Biosciences, Lincoln, USA).

[2] = system: panel of 237 cancer cell lines; assay: Cell panel screen of 237 cancer cell lines; assay type: cell-based; details: MSI-H colorectal cell lines
Excerpt: Genomic features for these cell lines such as somatic mutations, copy number alterations and hypermethylation were obtained from the list of Cancer Functional Events as mentioned in Garnett et al (2016) ANOVA method was used to identify significant associations of genomics features to drug response.

[3] = system: xenograft model of MSI-H colorectal cancer (HCT-116); assay: In vivo efficacy, HCT116 xenograft; design: species or system BALB/c nude mice; details: HCT-116 xenograft, 50 mg/kg daily (FIG. 4D)
Experimental: 5×10^6 HCT116 cells (in 100 μl of PBS) were injected subcutaneously into the right hind flank of groups of BALB/c nude mice. Tumours were measured externally by using a pair of digital callipers and volumes calculated as length×width^2×0.523. Before starting the study, the mice were arranged into groups of 8 according to tumour volume; mean volume should be circa 100 mm^3 with a normal range of 50 to 150 mm^3. […] Tumour volumes were measured every 2 to 3 days; animals were sacrificed when tumour volume was >1000 mm^3 or if the tumours started to show any abnormalities, such as ulceration.

CAL-51 = assay: CellTiter-Glo cell viability, combination matrix with PARP inhibitors (HSA synergy), CAL-51; assay type: cell-based; details: CAL-51, TP53 WT, BRCA2 Mutant, 72 h
Experimental: The cell line will be treated with test articles alone, matrix combinations with test articles and culture medium as vehicle control.
• 1. Harvest cells during the logarithmic growth period and count cell number. • 2. Adjust cell concentrations to 4.0×10^4cells/mL with respective culture medium. • 3. Add 100 μL cell suspensions to three 96-well plates (plates A, B and C) with the final cell density of 4×10^3 cells/well. 4a. Next Day: For the Plates of TO Reading: • 1) Equilibrate the plate A and its content at RT for approximately 30 min. • 2) Add 50 μL CellTiter-Glo reagent to each well. • 3) Mix content for 5 min on an orbital shaker to induce cell lysis. • 4) Allow the plate to incubate at RT for 20 min to stabilize luminescent signal. • 5) Record luminescence (TO) using EnVision Multi Label Reader. 4b. For the Plates of Test Reading: • 1) Prepare 500× solution of test articles (Top working concentration: 10 μM/100 μM of test articles in media with 3-fold serial dilutions to achieve 9 dose levels. • 2) Prepare 10× reference control solutions (Top working concentration: 100 μM in media with 3.16-fold serial dilutions. • 3) Dispense 500× drug solutions in each well (triplicate for each drug concentration) of the plate B using digital dispenser. […] Record luminescence (T3) using EnVision Multi Label Reader. […]

CC[C@@](O)(c1cc(F)c2c(c1)C(=O)N([C@H](c1ccc(Cl)cc1)[C@H](C)C(=O)O)[C@@]2(OC)c1ccc(Cl)cc1)C1CCOCC1 [Example 124, (2S,3S)-3-(4-chlorophenyl)-3-[(1R)-1-(4-chlorophenyl)-7-fluoro-5-[(1S)-1-hydroxy-1-(oxan-4-yl)propyl]-1-methoxy-3-oxo-2,3-dihydro-1H-isoindol-2-yl]-2-methylpropanoic acid]
sensitivity as measured by increased apoptosis [1]: showed sensitivity | modulation of the DDR signalling pathway (western blot) (DDR signalling pathway): clear modulation of the DDR signalling pathway | sensitivity in the cell panel data [2]: sensitive | tumour growth inhibition [3]: significantly inhibits tumour growth | HSA_Average <−5 Antagonism >+5 Synergy (CAL-51; Compound 1 in combination with Olaparib): 8.0 | HSA_Average <−5 Antagonism >+5 Synergy (CAL-51; Compound 1 in combination with Talazoparib): 15.7
